According to patent publication US9012431B2, “Boron-containing small molecules as anti-inflammatory agents” (Anacor Pharmaceuticals, Inc., priority 2008, dated 2015):
Like-named read-outs stand apart in the source and are kept apart here.

Assays:
PDE1A3 = target: T1, PDE1A3 (Homo sapiens, UniProt P54750); assay: PDE1 inhibition; format: biochemical; conditions: standard: 8-methoxymethyl-IBMX
T1 construct: made in house; host or cells: baculoviral expression system

PDE7A1 = target: T2, PDE7A1 (Homo sapiens, UniProt Q13946); assay: PDE7 inhibition; format: biochemical; conditions: standard: BRL-50481; read-out: IC50 PDE7A1
T2 construct: made in house; host or cells: baculoviral expression system
T2 sequence (Q13946 whole entry): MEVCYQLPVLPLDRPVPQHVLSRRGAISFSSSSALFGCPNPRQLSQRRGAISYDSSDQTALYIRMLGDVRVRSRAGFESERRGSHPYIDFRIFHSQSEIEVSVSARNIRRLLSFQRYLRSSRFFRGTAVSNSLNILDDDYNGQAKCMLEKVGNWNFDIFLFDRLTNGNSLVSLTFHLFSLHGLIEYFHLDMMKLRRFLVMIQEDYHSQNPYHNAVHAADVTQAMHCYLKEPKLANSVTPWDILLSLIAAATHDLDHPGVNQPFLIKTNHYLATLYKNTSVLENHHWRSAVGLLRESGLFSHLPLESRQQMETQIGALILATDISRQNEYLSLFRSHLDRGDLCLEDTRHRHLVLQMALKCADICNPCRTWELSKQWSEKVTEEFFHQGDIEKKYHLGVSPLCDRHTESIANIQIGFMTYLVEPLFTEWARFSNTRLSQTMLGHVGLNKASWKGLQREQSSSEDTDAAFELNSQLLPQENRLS

[1] = Pharmacokinetic analysis in the rat; format: in vivo
[2] = system: CD-1 (Crl.) derived male mice; assay: Phorbol Ester Induced Mouse Ear Edema Model; format: in vivo; conditions: topical, 6 h; for inhibition in vivo at 1 mg: 1 mg/ear × 2 topical
How it was run: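 Test compounds in acetone:ethanol 1:1 were applied topically to both ears 30 min before and 15 min after PMA challenge; dexamethasone positive control followed the same schedule. Ear thickness was measured by micrometer 6 h after PMA, and percent inhibition was calculated from ear-thickness increase versus vehicle controls.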

[3] = system: TNF-α secretion from peripheral blood mononuclear cells (PBMCs); assay: TNF-α secretion from PBMCs stimulated by LPS; format: cell-based, human; conditions: PBMC
Description: (§1) Compounds were screened by a biochemical assay against PDE4 enzyme and cell-based cytokine release assays using PBMCs stimulated by LPS or phytohemagglutinin (PHA).

in vivo = conditions: shrew
HepG2 = assay: Cytotoxicity against HepG2 cell line; format: cell-based
[4] = system: IFN-γ secretion from PBMCs; assay: IFN-γ secretion from PBMCs stimulated with PHA; format: cell-based, human; conditions: PBMC
Description: as §1

[5] = system: T3, phosphodiesterase 4 (PDE4) enzyme derived from human U937 cells; assay: PDE4 enzyme activity (enzyme derived from human U937 cells); format: biochemical; conditions: biochemical assay, PDE4 enzyme derived from human U937 cells; read-out: PDE4 IC50
T3 construct: PDE4 IC50; other: biochemical assay, PDE4 enzyme derived from human U937 cells; other: PDE4 in human U937 cells
Description: The structure-activity relationships of novel boron-containing anti-inflammatory agents was investigated.
as §1

p450 enzyme = p450 enzyme inhibition screen; format: in vitro ADME; conditions: in vitro screening
L929 = assay: Cytotoxicity against L929 cell line; format: cell-based
hERG-channel = hERG-channel (Homo sapiens, UniProt Q12809); assay: hERG-channel block; format: biochemical; conditions: in vitro screening
Sequence of hERG-channel (Q12809 whole entry): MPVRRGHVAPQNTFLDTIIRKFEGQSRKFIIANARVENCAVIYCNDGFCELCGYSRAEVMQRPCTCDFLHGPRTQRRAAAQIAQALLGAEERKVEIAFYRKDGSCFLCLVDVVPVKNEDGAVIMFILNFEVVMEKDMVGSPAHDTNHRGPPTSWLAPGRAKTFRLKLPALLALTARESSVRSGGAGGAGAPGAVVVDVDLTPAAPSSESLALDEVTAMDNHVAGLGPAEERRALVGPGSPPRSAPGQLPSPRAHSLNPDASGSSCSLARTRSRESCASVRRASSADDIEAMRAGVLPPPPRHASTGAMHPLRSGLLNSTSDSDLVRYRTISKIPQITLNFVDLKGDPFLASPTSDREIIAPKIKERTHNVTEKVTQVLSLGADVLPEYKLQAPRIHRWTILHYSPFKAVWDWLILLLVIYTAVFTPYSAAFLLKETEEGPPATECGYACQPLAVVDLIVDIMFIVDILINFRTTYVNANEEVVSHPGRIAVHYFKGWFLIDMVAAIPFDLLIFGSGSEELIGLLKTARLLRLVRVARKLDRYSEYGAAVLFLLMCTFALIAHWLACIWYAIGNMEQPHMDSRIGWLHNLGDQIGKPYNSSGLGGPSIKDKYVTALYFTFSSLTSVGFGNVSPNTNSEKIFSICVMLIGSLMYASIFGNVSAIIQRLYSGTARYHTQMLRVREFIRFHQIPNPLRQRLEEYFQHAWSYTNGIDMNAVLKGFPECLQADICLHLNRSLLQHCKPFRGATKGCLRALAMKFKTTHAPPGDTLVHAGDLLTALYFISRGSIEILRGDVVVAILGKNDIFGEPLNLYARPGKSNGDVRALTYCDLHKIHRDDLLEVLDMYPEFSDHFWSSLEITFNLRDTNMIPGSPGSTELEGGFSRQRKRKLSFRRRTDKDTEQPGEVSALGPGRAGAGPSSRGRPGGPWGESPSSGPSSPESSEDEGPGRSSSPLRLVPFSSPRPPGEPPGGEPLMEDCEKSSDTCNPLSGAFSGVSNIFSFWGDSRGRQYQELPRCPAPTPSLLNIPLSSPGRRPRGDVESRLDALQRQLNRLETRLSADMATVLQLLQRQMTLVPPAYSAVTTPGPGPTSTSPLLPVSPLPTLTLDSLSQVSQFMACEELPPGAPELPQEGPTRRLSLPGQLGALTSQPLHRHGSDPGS

[6] = system: oxazolone induced ear swelling; assay: Oxazolone induced ear swelling (allergic contact dermatitis model); format: in vivo; conditions: topical
[7] = system: IL-2 secretion from PBMCs; assay: IL-2 secretion from PBMCs stimulated with PHA; format: cell-based, human; conditions: PBMC
Description: as §1

Göttingen minipig = assay: Dermal application on the Göttingen minipig (plasma level, dermal irritation); format: in vivo; conditions: 5% C27 ointment or cream, after 24 hours of exposure
[8] = as above; format: in vivo; conditions: Göttingen, minipig, plasma, topical, 5 % ointment or cream over 15% body surface area; dermal 5% C27 ointment or cream over 15% body surface area; LLOQ=0.01 μg/ml; read-out: plasma levels of the compound
BALB/c male mice = assay: Oxazolone Induced Mouse Ear Edema Model; format: in vivo
Method: 2. In Vivo Anti-Inflammation Activity in Oxazolone Induced Mouse Ear Edema Model
Groups of 5 BALB/c male mice weighing 23±2 g were used. The preshaved abdomens of test animals were sensitized by application of 100 μl, of 1.5% oxazolone solution dissolved in acetone. Seven days after the initial sensitization, test substances, as well as vehicle (acetone:ethanol/1:1, 20 μL/ear) were each administered topically to the anterior and posterior surfaces of the right ear 30 minutes before, and 15 minutes after, challenge by a second application of oxazolone (1% in acetone, […]) via topical route. As a positive control, indomethacin (0.3 mg/ear×2) was administered topically using the same treatment regime as for the test compounds. Twenty-four hours after the second application of oxazolone, the ear thickness of each mouse was measured with a Dyer model micrometer gauge. A 30 percent or more inhibition in ear swelling relative to the vehicle control was considered significant and indicated possible anti-inflammatory activity.

PMA induced ear edema = PMA induced ear edema (acute skin irritation model); format: in vivo; conditions: for inhibition of PMA induced ear edema: acetone/ethanol vehicle, 5% C27, 15% dexamethasone, p<0.01
[9] = system: IL-5 production by human PBMCs; assay: IL-5 production by LPS- or PHA-stimulated PBMCs; format: cell-based; conditions: PBMC; LPS- and PHA-induced cytokine production by human PBMCs; read-out: IC50 IL-5 (Th2 cytokines)
[10] = system: IL-10 production by human PBMCs; assay: IL-10 production by LPS- or PHA-stimulated PBMCs; format: cell-based; conditions: PBMC; LPS- and PHA-induced cytokine production by human PBMCs; read-out: IC50 IL-10 (Th2 cytokines)
[11] = system: IL-1β production by human PBMCs; assay: IL-1β production by LPS- or PHA-stimulated PBMCs; format: cell-based; conditions: PBMC; LPS- and PHA-induced cytokine production by human PBMCs; read-out: IC50 IL-1β (pro-inflammatory cytokines)
PDE3 Cat = system: T4, PDE3 Cat; assay: PDE3 inhibition; format: biochemical; conditions: standard: Cilostazol
T4 construct: Recombinant human PDE enzymes were expressed in a baculoviral system.; PDE isoforms tested include

IFN-γ = assay: Cytokine assay, IFN-γ release from PBMC; format: cell-based; conditions: human PBMC, 20 ug/mL PHA, supernatant at 24 hours
How it was run: (§2)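 Cytokine released into the medium was the read-out. Thawed human peripheral blood mononuclear cells in RPMI 1640/10% FBS received test article at 0.01–10 μM, in triplicate wells.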

IL-2 = assay: Cytokine assay, IL-2 release from PBMC; format: cell-based; conditions: human PBMC, 20 ug/mL PHA, supernatant at 24 hours
How it was run: as §2

TNF-α = assay: Cytokine assay, TNF-α release from PBMC; format: cell-based; conditions: Homo sapiens, PBMC, 24 h, 1 μg/mL LPS, supernatant at 24 hours
How it was run: as §2

[12] = system: T5, PDE4 partially purified from human U-937 myeloid leukemia cells; assay: PDE4 Assay (enzyme from U-937 cells, [3H]cAMP); format: biochemical; conditions: PDE4 from U-937 cells, Tris buffer pH 7.5, 20 minutes at 25° C.
T5 construct: PDE4 partially purified from human U-937 myeloid leukemia cells was used

IL-10 = assay: Cytokine assay, IL-10 release from PBMC; format: cell-based; conditions: human PBMC, 20 ug/mL PHA, supernatant at 48 hours
How it was run: as §2

IL-5 = assay: Cytokine assay, IL-5 release from PBMC; format: cell-based; conditions: human PBMC, 20 ug/mL PHA, supernatant at 48 hours
How it was run: as §2

[13] = vehicle not given, ear swelling 6 hours after PMA
[14] = LPS- and PHA-induced cytokine production by human PBMCs, read-out: IC50 TNFα (pro-inflammatory cytokines)
[15] = LPS- and PHA-induced cytokine production by human PBMCs, read-out: IC50 IFNg (Th1 cytokines)
[16] = LPS- and PHA-induced cytokine production by human PBMCs, read-out: IC50 IL-2 (Th1 cytokines)

T1 sequence (P54750 whole entry): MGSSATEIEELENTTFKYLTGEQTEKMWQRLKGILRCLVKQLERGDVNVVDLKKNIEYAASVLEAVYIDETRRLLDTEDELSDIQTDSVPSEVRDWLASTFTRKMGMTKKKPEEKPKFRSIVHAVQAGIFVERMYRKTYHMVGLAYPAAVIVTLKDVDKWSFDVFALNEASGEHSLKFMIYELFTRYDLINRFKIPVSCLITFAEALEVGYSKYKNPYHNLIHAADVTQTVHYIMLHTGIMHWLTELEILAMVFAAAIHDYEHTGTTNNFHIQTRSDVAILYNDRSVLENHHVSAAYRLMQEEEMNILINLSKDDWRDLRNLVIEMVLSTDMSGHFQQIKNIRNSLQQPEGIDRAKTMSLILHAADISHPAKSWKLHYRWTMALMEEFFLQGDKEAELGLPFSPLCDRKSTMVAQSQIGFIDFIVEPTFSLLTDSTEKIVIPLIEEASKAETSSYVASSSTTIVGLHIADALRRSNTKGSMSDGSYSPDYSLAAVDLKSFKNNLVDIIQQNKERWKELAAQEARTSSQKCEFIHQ

With `COCc1nc2c([nH]1)c(=O)n(C)c(=O)n2CC(C)C` [8-methoxymethyl-IBMX, reference compound] the IC50 (PDE1A3) was 1 to 10 µM.
`Cc1ccc([N+](=O)[O-])cc1S(=O)(=O)N(C)C` [BRL-50481, reference compound] gave an IC50 (PDE7A1) of 1 to 10 µM.
In the case of `N#Cc1ccc(Oc2ccc3c(c2)COB3O)cc1C#N` [C27, 5-(3,4-Dicyanophenoxy)-1,3-dihydro-1-hydroxy-2,1-benzoxaborole], the “mean plasma residence time” value ([1]; intravenous dosing at 20 mg/kg) is reported as 0.64 h, the bioavailability ([1]; plasma, oral dosing at 100 mg/kg) is reported as 7% and the inhibition in vivo at 1 mg [2, 13] is reported as 60 to 90%. For the same compound, the inhibition in vivo at 3 mg ([2]; 3 mg/ear × 2 topical, vehicle not given, ear swelling 6 hours after PMA) was 60 to 90%, the IC50 ([3]; Homo sapiens, PBMCs stimulated by LPS, read-out: TNF-α secretion IC50) was 0.16 µM and the Cmax (in vivo) was 12400 ng/mL. The cytotoxicity (HepG2) was > 100 micro M, the IC50 ([4]; Homo sapiens, PBMCs stimulated with PHA, read-out: IFN-γ secretion IC50) was 0.22 µM and the IC50 [5] was 0.06 µM. For the same compound, the p450 enzyme inhibition (p450 enzyme) was “no significant”, the cytotoxicity (L929) was > 100 micro M and the hERG inhibition (hERG-channel) was “no significant”. For the same compound, the “inhibition of oxazolone induced ear swelling” value [6] was “significantly inhibits”, the IC50 ([7]; Homo sapiens, PBMCs stimulated with PHA, read-out: IL-2 secretion IC50) was 0.18 µM and the dermal irritation (Göttingen minipig) was “no dermal irritation”. For the same compound, the concentration at 24 h [8] was < 10 ng/mL, the inhibition in vivo at 3 mg (BALB/c male mice; topical, 24 h) was 40 to 60% and the “inhibition of PMA induced ear edema” value (PMA induced ear edema) was 82%. For the same compound, the “lowest active concentration in PMA ear edema model” value (PMA induced ear edema; ointment vehicle) was 0.01%.
For `COc1ccc([C@]2(C#N)CC[C@@H](C(=O)O)CC2)cc1OC1CCCC1` [Cilomilast], the IC50 [3, 14] was < 1 µM, the IC50 [9] was < 1 µM and the IC50 [4, 15] was < 1 µM. The IC50 [10] was 1 to 10 µM, the IC50 [7, 16] was < 1 µM and the IC50 [11] was > 30 µM.
In the case of `O=C1CCc2cc(OCCCCc3nnnn3C3CCCCC3)ccc2N1` [Cilostazol, cilostazol, reference compound], the IC50 (PDE3 Cat) is reported as 1 to 10 µM.
In the case of `CCOC(=O)c1nc(Oc2ccc3c(c2)COB3O)ccc1C#N` [D45, 3-Cyano-6-(1-hydroxy-1,3-dihydro-benzo[c][1,2]oxaborol-5-yloxy)-pyridine-2-carboxylic acid ethyl ester], the IC50 (IFN-γ) is reported as < 1 µM, the IC50 (IL-2) is reported as < 1 µM and the IC50 (TNF-α) is reported as < 1 µM. For the same compound, the IC50 [12] was < 1 µM and the melting point was 204 to 206 °C.
In the case of `CCOC(=O)c1ccc(Oc2ccc3c(c2)COB3O)nc1` [D60, Ethyl 6-(1-hydroxy-1,3-dihydrobenzo[c][1,2]oxaborol-5-yloxy)nicotinate], the inhibition in vivo at 0.1 mg ([2]; 0.1 mg/ear × 2 topical, Acetone:Ethanol/1:1, ear swelling 6 hours after PMA) is reported as < 30%, the inhibition in vivo at 0.2 mg ([2]; 0.2 mg/ear × 2 topical, Acetone:Ethanol/1:1, ear swelling 6 hours after PMA) is reported as < 30% and the inhibition in vivo at 1 mg ([2]; Acetone:Ethanol/1:1, ear swelling 6 hours after PMA) is reported as 30 to 60%. The IC50 (IL-10) was < 1 µM, the IC50 (IL-5) was < 1 µM and the IC50 (IFN-γ) was < 1 µM. For the same compound, the IC50 (IL-2) was < 1 µM, the IC50 (TNF-α) was < 1 µM and the IC50 [12] was < 1 µM. The inhibition in vivo at 0.1 mg (BALB/c male mice; 0.1 mg/ear × 2 topical, Acetone:Ethanol/1:1, ear thickness 24 hours after second oxazolone application) was < 20%, the inhibition in vivo at 0.2 mg (BALB/c male mice; 0.2 mg/ear × 2 topical, Acetone:Ethanol/1:1, ear thickness 24 hours after second oxazolone application) was < 20% and the inhibition in vivo at 1 mg (BALB/c male mice; 1 mg/ear × 2 topical, Acetone:Ethanol/1:1, ear thickness 24 hours after second oxazolone application) was < 20%. It also gave a melting point of 110 to 113 °C.
With `COc1ccc(C2CNC(=O)C2)cc1OC1CCCC1` (centres unmarked) [Rolipram, rolipram, reference compound] the IC50 [3, 14] was < 1 µM, the IC50 [9] was < 1 µM and the IC50 [4, 15] was < 1 µM. The IC50 (IL-10) was < 1 µM, the IC50 [10] was < 1 µM and the IC50 (IL-5) was < 1 µM. The IC50 (IFN-γ) was < 1 µM, the IC50 (IL-2) was < 1 µM and the IC50 (TNF-α) was < 1 µM. For the same compound, the IC50 [7, 16] was < 1 µM and the IC50 [11] was > 30 µM.
For `C[C@@H]1C[C@H]2[C@@H]3CCC4=CC(=O)C=C[C@]4(C)[C@@]3(F)[C@@H](O)C[C@]2(C)[C@@]1(O)C(=O)CO` [dexamethasone, reference compound], the inhibition in vivo at 1 mg [2, 13] was 60 to 90% and the “inhibition of PMA induced ear edema” value (PMA induced ear edema) was 73%.
